In patent US20250257055A1, “TERTIARY AMIDE DERIVATIVES SUBSTITUTED WITH 4-MEMBERED RING STRUCTURE” (Sumitomo Pharma Co., Ltd., priority 2024, published 2025):
pIC50: −log10 of the molar value. Read-outs that look alike come from different tables or passages of the source.

Tests used:
[1] = Membrane permeability test (PAMPA); format: in vitro ADME
Summary of the method: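 Donor compartment held compound in system solution over a GIT Lipid-0 membrane, with sink buffer on the acceptor side; incubation 4 h at 37° C. Donor and acceptor concentrations were read by UV (190-500 nm), or by LC-MS for weakly absorbing compounds, and Pe (10^−6 cm/sec) was calculated.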

[2] = Pharmacokinetic study in mice; format: in vivo; conditions: for AUC / clearance / half-life / Vd / Cmax: female, BALB/c (BALB/cAnN CrlCrlj), mouse, plasma; for Vd: read-out: Vdss
Summary of the method: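 Female 7-week-old BALB/c mice were dosed 1 mg/kg intravenously (50% PEG, 0.01 mol/L HCl) or 10 mg/kg orally (0.5% methylcellulose). Plasma was sampled from 5 or 15 min up to 24 hr, and concentrations were quantified by LC-MS against an internal-standard calibration curve.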

recombinant p300 = recombinant p300 (Homo sapiens (Human), UniProt Q09472); test: HAT activity inhibition experiment (SensoLyte HAT(p300) Assay Kit); format: biochemical; conditions: recombinant p300, histone H3 peptide, acetyl CoA
Chain of recombinant p300 (Q09472 whole entry): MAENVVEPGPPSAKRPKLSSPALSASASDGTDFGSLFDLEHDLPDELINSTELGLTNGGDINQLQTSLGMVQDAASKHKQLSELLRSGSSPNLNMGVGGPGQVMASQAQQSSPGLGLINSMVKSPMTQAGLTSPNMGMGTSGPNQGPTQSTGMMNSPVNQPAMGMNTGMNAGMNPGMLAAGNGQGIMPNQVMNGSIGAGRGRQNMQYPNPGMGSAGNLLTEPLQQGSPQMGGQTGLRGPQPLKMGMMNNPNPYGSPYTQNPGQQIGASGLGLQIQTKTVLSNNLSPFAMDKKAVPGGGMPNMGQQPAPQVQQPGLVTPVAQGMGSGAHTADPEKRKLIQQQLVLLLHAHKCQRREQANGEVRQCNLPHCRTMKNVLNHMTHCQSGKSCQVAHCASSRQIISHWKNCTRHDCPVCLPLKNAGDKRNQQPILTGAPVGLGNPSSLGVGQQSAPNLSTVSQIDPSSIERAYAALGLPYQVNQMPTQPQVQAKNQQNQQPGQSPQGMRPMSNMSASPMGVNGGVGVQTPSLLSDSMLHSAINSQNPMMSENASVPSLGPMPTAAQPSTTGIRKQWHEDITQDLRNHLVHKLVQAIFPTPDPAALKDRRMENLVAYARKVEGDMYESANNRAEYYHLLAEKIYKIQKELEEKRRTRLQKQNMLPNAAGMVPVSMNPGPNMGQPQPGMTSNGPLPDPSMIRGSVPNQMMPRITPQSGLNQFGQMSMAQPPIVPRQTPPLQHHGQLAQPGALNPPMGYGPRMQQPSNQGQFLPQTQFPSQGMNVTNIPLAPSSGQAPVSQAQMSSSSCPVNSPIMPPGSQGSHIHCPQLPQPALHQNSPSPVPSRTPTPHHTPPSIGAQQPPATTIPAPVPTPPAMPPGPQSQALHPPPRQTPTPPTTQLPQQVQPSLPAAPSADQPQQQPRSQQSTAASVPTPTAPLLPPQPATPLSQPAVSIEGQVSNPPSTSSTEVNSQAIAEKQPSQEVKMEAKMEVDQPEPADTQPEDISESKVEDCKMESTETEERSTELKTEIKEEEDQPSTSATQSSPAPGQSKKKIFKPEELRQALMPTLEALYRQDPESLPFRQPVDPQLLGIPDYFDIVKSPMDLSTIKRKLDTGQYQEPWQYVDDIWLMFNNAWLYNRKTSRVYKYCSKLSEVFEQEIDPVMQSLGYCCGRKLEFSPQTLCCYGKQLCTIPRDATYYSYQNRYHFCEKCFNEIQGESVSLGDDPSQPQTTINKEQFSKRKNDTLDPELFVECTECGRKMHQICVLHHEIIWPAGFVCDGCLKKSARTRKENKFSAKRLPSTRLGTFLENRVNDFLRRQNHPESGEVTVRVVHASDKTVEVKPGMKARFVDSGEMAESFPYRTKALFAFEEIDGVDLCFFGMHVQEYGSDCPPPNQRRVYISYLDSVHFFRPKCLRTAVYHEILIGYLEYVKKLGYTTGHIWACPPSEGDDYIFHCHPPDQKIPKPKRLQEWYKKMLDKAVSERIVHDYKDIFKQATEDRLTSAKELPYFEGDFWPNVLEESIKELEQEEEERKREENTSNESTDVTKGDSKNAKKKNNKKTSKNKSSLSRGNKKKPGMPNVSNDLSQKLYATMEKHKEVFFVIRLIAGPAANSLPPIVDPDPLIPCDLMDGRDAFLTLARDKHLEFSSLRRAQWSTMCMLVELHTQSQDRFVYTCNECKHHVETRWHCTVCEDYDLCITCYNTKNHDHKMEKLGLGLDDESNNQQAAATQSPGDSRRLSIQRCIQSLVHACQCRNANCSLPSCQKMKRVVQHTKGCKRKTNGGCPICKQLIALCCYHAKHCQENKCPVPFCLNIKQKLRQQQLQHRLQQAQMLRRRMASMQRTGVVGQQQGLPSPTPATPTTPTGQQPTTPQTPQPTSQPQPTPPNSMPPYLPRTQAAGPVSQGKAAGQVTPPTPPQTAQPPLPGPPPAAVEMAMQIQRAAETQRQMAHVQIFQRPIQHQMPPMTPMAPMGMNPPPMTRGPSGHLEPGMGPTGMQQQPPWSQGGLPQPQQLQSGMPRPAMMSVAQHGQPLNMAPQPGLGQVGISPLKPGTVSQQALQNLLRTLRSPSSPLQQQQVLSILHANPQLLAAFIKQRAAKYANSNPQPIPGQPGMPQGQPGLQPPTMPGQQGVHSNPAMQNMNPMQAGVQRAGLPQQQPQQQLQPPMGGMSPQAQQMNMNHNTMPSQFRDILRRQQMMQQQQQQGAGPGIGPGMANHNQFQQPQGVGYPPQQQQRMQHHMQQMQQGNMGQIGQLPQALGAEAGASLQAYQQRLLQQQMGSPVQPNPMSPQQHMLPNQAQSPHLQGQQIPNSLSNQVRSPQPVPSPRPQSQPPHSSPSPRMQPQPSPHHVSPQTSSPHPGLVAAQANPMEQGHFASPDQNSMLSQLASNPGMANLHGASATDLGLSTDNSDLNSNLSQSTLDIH
Summary of the method: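 Recombinant human p300 preincubated with compound 10 min at room temperature, then acetyl-CoA and histone H3 peptide added and reacted 30 min at 37 °C. After stop, developer added for 30 min at room temperature in the dark; fluorescence read at Ex 389/Em 513 nm.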

[3] = pH 5.0, 37° C., read-out: pH 5.0 Pe
[4] = pH 7.4, 37° C., read-out: pH 7.4 Pe

Papp at 4 h [1, 3] [×10⁻⁶ cm/s] | Papp at 4 h [1, 4] [×10⁻⁶ cm/s] | AUC ([2]; intravenous, 1 mg/kg) [ng·h/mL] | clearance ([2]; intravenous, 1 mg/kg) [mL/min/kg] | half-life ([2]; intravenous, 1 mg/kg) [h] | Vd ([2]; intravenous, 1 mg/kg) [L/kg] | AUC ([2]; oral, 10 mg/kg) [ng·h/mL] | Cmax ([2]; oral, 10 mg/kg) [ng/mL] | BA ([2]; oral, 10 mg/kg) [%] | pIC50 (recombinant p300) | Compound
1.6 | 8.2 | 313 | 53 | 1.15 | 2.1 | 1470 | 1470 | 47.0 | 8.01 | CN1CC(N(Cc2ccc(F)cn2)C(=O)CN2C(=O)N[C@]3(C[C@@H](F)c4cc(-c5cnn(C6COC6)c5)ccc43)C2=O)(C(F)(F)F)C1 [Example 24, 2-{(1′S,3′R)-3′-fluoro-5′-[1-(oxetan-3-yl)-1H-pyrazol-4-yl]-2,5-dioxo-2′,3′-dihydrospiro[imidazolidine-4,1′-inden]-1-yl}-N-[(5-fluoropyridin-2-yl)methyl]-N-[1-methyl-3-(trifluoromethyl)azetidin-3-yl]acetamide]
3 | 5.1 | 819 | 19.9 | 1.41 | 1.3 | 8240 | 6140 | 100.6 | 9.05 | O=C1N[C@]2(C[C@@H](F)c3cc(-c4cnn(C5CN(C6COC6)C5)c4)ccc32)C(=O)N1CC(=O)N(Cc1ccc(F)cn1)C1(C(F)(F)F)COC1 [Example 7, 2-[(1′S,3′R)-3′-fluoro-5′-{1-[1-(oxetan-3-yl)azetidin-3-yl]-1H-pyrazol-4-yl}-2,5-dioxo-2′,3′-dihydrospiro[imidazolidine-4,1′-inden]-1-yl]-N-[(5-fluoropyridin-2-yl)methyl]-N-[3-(trifluoromethyl)oxetan-3-yl]acetamide]

The next lines start with the molecule.

Compound | Papp at 4 h [1, 3] [×10⁻⁶ cm/s] | Papp at 4 h [1, 4] [×10⁻⁶ cm/s] | AUC ([2]; intravenous, 1 mg/kg) [ng·h/mL] | clearance ([2]; intravenous, 1 mg/kg) [mL/min/kg] | half-life ([2]; intravenous, 1 mg/kg) [h] | Vd ([2]; intravenous, 1 mg/kg) [L/kg] | AUC ([2]; oral, 10 mg/kg) [ng·h/mL] | Cmax ([2]; oral, 10 mg/kg) [ng/mL] | BA ([2]; oral, 10 mg/kg) [%] | pIC50 (recombinant p300)
O=C1N[C@]2(C[C@@H](F)c3cc(-c4cnn(C5CCN(C6COC6)CC5)c4)ccc32)C(=O)N1CC(=O)N(Cc1ccc(F)cn1)C1(C(F)(F)F)COC1 [Example 23, 2-[(1′S,3′R)-3′-fluoro-5′-{1-[1-(oxetan-3-yl)piperidin-4-yl]-1H-pyrazol-4-yl}-2,5-dioxo-2′,3′-dihydrospiro[imidazolidine-4,1′-inden]-1-yl]-N-[(5-fluoropyridin-2-yl)methyl]-N-[3-(trifluoromethyl)oxetan-3-yl]acetamide] | 3.2 | 7 | 1690 | 9.8 | 4.1 | 1.8 | 8400 | 8140 | 49.7 | 8.05
CN1CC(N(Cc2ccc(F)cn2)C(=O)CN2C(=O)N[C@]3(C[C@@H](F)c4cc(-c5cnn(C)c5)ccc43)C2=O)(C(F)(F)F)C1 [Example 20, 2-[(1′S,3′R)-3′-fluoro-5′-(1-methyl-1H-pyrazol-4-yl)-2,5-dioxo-2′,3′-dihydrospiro[imidazolidine-4,1′-inden]-1-yl]-N-[(5-fluoropyridin-2-yl)methyl]-N-[1-methyl-3-(trifluoromethyl)azetidin-3-yl]acetamide] | 7.8 | 21.9 | 528 | 31.1 | 1.34 | 1.6 | 1520 | 1340 | 28.8 | 8.77
CN1CC(N(Cc2ccc(F)cc2)C(=O)CN2C(=O)N[C@]3(C[C@@H](F)c4cc(-c5cnn(C)c5)ccc43)C2=O)(C(F)(F)F)C1 [Example 10, 2-[(1′S,3′R)-3′-fluoro-5′-(1-methyl-1H-pyrazol-4-yl)-2,5-dioxo-2′,3′-dihydrospiro[imidazolidine-4,1′-inden]-1-yl]-N-[(4-fluorophenyl)methyl]-N-[1-methyl-3-(trifluoromethyl)azetidin-3-yl]acetamide] | 23.9 | 28.6 | 491 | 33.5 | 1.16 | 1.8 | 3480 | 3240 | 70.8 | 9.40
